Measurements from patent publication US12246008B2, “4-amino or 4-alkoxy-substituted aryl sulfonamide compounds with selective activity in voltage-gated sodium channels” (Merck Sharp & Dohme LLC, priority 2018, dated 2025).
Read-outs that look alike come from different tables or passages of the source.

How the values were obtained:
Experiment in all cases: Qube automated patch-clamp assay, inhibition of sodium current
Type in all cases: cell-based
[1] = target: T1, human Nav1.6 channels stably expressed in HEK 293 cells (Homo sapiens, UniProt Q9UQD0); conditions: holding potential −65 mV; max concentration tested 33750 nM
T1 construct: expressed in transfected cells; host or cells: HEK 293
Method: (§1) Qube™ Experimental Procedure:
(§2) Compounds were tested on human Nav1.7 and Nav1.6 channels stably expressed in HEK 293 cells. […] Cells were sealed on a planar substrate using the multihole technology. Cells expressing human Nav1.7 channels were held at −75 mV or −80 mV. Cells expressing human Nav1.6 channels were held at −65 mV. A train of 6 consecutive test pulses to −10 mV, preceded by 8 s prepulses to −115 mV, was applied at a frequency of 0.1 Hz before and after compound addition. Cells in each Qchip well were incubated in compound for 5 minutes before measuring inhibition. Peak currents were measured in control conditions and after compound addition. The following recording solutions were used (mM). External Nav1.6: 150 NaCl, 2 CaCl2), 5 KCl, 1 Mg Cl2, 10 HEPES, 12 Dextrose; external Nav1.7: 40 NaCl, 120 NMDG, 1 KCl, 0.5 MgCl2, 5 HEPES, 2.7 CaCl2); internal: 120 CsF, 30 CsCl, 10 EGTA, 5 HEPES, 5 NaF, 2 MgCl2. Compounds were prepared as 10 mM stock solutions in DMSO. 10 point compound titrations were generated using the Echo acoustic liquid handling instrument and glass coated 384 well plates. The final DMSO concentration in the assay was 0.3%. For all electrophysiology experiments, offline analysis was used to determine percent inhibition as a function of drug concentration. IC50 values were determined by fitting to the Hill equation.
(§3) The various compounds in EXAMPLES 1 through 43 and TABLE 2 exemplified above were assayed for activity and selectivity using the foregoing Qube® technique. The results are reported in TABLE 3 in a format expressing the identification of the compound with reference EXAMPLE followed by the observed potency in nM for NaV1.7, NaV1.6 and NaV1.5. NA signifies not applicable and the max concentration tested is 33750 nM.

[2] = target: T2, human Nav1.7 channels stably expressed in HEK 293 cells (Homo sapiens, UniProt Q15858); conditions: max concentration tested 33750 nM, read-out: NaV1.7 (nM)
T2 construct: expressed in transfected cells; host or cells: HEK 293
Method: as §1, §2, §3

NaV1.5 = NaV1.5 (Homo sapiens, UniProt Q14524); conditions: holding potential −80 mV; max concentration tested 33750 nM
Method: as §2, §3

[3] = holding potential −75 mV, −75 mV

T1 sequence (Q9UQD0 whole entry): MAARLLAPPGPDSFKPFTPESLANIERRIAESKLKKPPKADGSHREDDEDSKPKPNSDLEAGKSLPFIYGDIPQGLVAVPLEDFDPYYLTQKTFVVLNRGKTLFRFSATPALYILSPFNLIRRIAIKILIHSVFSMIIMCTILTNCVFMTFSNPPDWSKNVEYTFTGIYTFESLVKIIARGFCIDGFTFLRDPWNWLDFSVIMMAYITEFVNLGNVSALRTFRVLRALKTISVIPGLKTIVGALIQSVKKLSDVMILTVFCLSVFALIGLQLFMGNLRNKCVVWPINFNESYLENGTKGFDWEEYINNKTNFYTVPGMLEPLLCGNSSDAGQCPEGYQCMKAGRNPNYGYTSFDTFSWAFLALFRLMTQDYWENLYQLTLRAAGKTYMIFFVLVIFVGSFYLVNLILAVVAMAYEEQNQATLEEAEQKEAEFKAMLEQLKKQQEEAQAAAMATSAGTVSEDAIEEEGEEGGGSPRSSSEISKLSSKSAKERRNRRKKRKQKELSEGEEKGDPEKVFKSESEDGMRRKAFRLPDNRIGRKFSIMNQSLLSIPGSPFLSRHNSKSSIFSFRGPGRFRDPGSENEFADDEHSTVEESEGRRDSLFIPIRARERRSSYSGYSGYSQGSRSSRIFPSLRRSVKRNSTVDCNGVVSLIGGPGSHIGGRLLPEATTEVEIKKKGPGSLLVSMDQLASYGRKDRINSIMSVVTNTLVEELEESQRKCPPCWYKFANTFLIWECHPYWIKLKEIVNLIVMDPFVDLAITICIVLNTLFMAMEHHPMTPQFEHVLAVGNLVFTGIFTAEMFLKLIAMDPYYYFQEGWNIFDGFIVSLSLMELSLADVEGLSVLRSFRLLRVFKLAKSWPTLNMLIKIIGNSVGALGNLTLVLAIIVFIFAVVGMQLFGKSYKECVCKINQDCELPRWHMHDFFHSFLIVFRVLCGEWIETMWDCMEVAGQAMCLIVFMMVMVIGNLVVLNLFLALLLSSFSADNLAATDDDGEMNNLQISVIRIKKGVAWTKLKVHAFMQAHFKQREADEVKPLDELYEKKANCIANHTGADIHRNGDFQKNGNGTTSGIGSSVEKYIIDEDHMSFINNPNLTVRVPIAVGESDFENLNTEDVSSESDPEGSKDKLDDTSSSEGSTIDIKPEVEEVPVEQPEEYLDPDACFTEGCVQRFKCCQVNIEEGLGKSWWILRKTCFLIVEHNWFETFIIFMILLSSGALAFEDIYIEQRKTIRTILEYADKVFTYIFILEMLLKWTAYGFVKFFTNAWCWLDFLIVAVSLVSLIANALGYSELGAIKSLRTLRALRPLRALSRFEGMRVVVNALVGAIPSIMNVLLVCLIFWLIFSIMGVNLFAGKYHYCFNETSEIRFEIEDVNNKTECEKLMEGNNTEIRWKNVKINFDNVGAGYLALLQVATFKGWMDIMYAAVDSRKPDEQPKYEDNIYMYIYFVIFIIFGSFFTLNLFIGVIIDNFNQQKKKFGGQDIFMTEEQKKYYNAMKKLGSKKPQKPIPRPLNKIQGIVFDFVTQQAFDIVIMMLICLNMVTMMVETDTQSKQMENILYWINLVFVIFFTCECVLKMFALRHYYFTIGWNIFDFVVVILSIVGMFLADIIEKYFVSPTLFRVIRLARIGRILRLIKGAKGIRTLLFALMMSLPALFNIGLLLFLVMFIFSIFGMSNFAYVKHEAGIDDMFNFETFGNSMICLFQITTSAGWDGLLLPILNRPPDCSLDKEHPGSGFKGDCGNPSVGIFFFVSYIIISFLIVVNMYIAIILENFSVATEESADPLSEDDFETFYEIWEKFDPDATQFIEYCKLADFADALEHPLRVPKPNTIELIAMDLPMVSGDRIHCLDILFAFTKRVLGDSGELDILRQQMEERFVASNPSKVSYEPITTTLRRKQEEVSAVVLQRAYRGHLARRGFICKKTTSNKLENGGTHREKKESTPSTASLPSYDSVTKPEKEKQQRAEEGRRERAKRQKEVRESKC
T2 sequence (Q15858 whole entry): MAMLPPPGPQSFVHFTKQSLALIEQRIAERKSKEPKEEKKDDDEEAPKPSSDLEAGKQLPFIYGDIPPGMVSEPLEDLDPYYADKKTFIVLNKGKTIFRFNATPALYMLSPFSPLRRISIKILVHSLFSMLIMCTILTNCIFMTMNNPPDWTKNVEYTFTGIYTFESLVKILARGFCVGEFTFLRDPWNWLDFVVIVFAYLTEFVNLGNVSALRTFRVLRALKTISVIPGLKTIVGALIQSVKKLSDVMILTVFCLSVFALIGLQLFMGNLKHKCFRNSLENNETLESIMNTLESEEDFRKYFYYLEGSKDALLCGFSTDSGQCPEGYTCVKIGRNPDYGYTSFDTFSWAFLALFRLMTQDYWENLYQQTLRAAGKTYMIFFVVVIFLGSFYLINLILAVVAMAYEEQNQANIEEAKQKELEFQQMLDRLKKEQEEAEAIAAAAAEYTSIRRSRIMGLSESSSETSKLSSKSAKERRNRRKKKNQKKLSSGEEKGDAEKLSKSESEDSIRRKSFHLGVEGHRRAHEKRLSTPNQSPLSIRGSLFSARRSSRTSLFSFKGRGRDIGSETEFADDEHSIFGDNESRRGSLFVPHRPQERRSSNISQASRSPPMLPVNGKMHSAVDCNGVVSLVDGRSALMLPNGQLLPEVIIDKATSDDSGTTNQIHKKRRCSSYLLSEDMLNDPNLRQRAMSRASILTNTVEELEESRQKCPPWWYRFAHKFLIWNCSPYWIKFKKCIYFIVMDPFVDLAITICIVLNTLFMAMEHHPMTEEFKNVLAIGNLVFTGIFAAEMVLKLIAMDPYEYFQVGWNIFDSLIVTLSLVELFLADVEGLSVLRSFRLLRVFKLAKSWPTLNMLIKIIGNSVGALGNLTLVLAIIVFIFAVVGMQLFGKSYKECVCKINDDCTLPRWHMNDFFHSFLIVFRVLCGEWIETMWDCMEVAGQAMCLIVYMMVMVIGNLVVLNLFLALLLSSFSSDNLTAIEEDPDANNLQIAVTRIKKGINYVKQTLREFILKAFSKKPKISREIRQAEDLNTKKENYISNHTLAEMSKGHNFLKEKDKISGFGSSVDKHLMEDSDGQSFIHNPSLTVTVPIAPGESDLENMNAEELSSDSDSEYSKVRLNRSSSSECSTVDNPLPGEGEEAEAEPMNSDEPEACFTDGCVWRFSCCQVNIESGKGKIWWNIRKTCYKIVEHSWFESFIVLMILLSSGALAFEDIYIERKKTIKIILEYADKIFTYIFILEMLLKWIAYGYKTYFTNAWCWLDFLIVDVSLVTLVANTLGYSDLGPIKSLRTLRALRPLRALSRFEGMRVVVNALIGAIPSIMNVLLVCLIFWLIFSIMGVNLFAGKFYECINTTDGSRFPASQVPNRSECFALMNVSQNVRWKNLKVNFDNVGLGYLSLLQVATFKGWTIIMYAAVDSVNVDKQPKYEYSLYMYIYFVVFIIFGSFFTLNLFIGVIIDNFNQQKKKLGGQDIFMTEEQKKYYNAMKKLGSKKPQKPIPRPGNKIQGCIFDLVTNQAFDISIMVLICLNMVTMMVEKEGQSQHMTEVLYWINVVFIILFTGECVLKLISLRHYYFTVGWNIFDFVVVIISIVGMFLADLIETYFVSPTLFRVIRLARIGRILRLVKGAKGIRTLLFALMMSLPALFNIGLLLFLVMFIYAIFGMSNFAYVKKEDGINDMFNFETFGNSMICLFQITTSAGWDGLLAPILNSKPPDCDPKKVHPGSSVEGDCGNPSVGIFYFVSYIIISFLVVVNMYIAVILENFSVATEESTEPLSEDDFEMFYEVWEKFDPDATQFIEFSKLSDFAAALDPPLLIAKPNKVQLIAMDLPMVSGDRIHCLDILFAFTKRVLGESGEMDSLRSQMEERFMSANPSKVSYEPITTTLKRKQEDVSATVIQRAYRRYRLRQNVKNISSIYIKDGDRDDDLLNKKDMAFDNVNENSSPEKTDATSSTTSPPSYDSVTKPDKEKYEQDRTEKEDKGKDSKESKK

| SMILES | IC50 [1] [nM] | IC50 [2, 3] [nM] | IC50 (NaV1.5) [nM] | IC50 ([2]; holding potential −80 mV, −80 mV) [nM] |
| --- | --- | --- | --- | --- |
| Cc1cc(NC[C@H](CC(C)(C)CCN)[C@@H](C)N)c(C#N)cc1S(=O)(=O)Nc1ncns1 [Example 68] | 10100 | 37 | > 33800 | – |
| COc1cc(S(=O)(=O)Nc2ncns2)c(F)cc1NCC(CC1(CN)CCC1)[C@@H](C)N (stereo partly drawn) [Example 73] | > 33800 | 23 | > 33800 | – |
| C[C@@H](N)[C@H](CNc1cc(F)c(S(=O)(=O)Nc2ncns2)cc1CO)CC(N)C1CC1 (stereo partly drawn) [Example 80] | > 33800 | 71 | > 33800 | – |
| CCC(N)C[C@@H](CNc1cc(F)c(S(=O)(=O)Nc2ncns2)cc1OC)[C@@H](C)N (stereo partly drawn) [Example 83] | > 33800 | 48 | > 33800 | – |
| C[C@@H](N)[C@H](CNc1ccc(S(=O)(=O)Nc2ncns2)c(F)c1F)CC1(CCN)CCC1 [Example 100] | > 33800 | – | > 33800 | 52 |
| C[C@@H](N)C(CNc1cc(F)c(S(=O)(=O)Nc2ncns2)cc1Cl)CN1CCCC1 (stereo partly drawn) [Example 110] | > 33800 | 110 | > 33800 | – |
